Data taken from PubChem BioAssay (NCI).
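Dose response: 5 concentrations. Exposure: 48 h. Format: 96-well plates. Endpoint: linear interpolation; highest concentration if not reached. Here, GI50 denotes the concentration required for 50% inhibition of growth. TGI is the concentration that stops growth completely.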

Legend:
Test in all cases: inhibition of tumour cell growth, NCI panel, 48 h
SF-539 CNS = test system: SF-539 CNS
SN12C renal = test system: SN12C renal
MOLT-4 leukemia = test system: MOLT-4 leukemia
IGROV1 ovarian = test system: IGROV1 ovarian
HT29 colon = test system: HT29 colon
SF-295 CNS = test system: SF-295 CNS
OVCAR-5 ovarian = test system: OVCAR-5 ovarian
NCI-H522 lung = test system: NCI-H522 lung
HOP-62 NSCLC = test system: HOP-62 NSCLC
UACC-62 melanoma = test system: UACC-62 melanoma
DU-145 prostate = test system: DU-145 prostate
SK-OV-3 ovarian = test system: SK-OV-3 ovarian
PC-3 prostate = test system: PC-3 prostate
SF-268 CNS = test system: SF-268 CNS
MDA-MB-435 = test system: MDA-MB-435
RPMI-8226 leukemia = test system: RPMI-8226 leukemia
786-0 renal = test system: 786-0 renal
SK-MEL-5 melanoma = test system: SK-MEL-5 melanoma
MCF7 breast = test system: MCF7 breast
BT-549 breast = test system: BT-549 breast
HCT-15 colon = test system: HCT-15 colon
SW-620 colon = test system: SW-620 colon
NCI-H460 lung = test system: NCI-H460 lung
OVCAR-8 ovarian = test system: OVCAR-8 ovarian
UACC-257 melanoma = test system: UACC-257 melanoma
SNB-75 CNS = test system: SNB-75 CNS
EKVX NSCLC = test system: EKVX NSCLC
A498 renal = test system: A498 renal
SNB-19 CNS = test system: SNB-19 CNS
OVCAR-4 ovarian = test system: OVCAR-4 ovarian
NCI-H23 lung = test system: NCI-H23 lung
OVCAR-3 ovarian = test system: OVCAR-3 ovarian
SK-MEL-28 melanoma = test system: SK-MEL-28 melanoma
HOP-92 NSCLC = test system: HOP-92 NSCLC
HCT-116 colon = test system: HCT-116 colon
CCRF-CEM leukemia = test system: CCRF-CEM leukemia
SK-MEL-2 melanoma = test system: SK-MEL-2 melanoma
MALME-3M melanoma = test system: MALME-3M melanoma
CAKI-1 renal = test system: CAKI-1 renal
SR leukemia = test system: SR leukemia
HCC-2998 colon = test system: HCC-2998 colon
TK-10 renal = test system: TK-10 renal
KM12 colon = test system: KM12 colon
LOX IMVI melanoma = test system: LOX IMVI melanoma
T-47D breast = test system: T-47D breast
ACHN renal = test system: ACHN renal
NCI-H226 lung = test system: NCI-H226 lung
NCI/ADR-RES ovarian = test system: NCI/ADR-RES ovarian
COLO 205 colon = test system: COLO 205 colon
MDA-MB-231 breast = test system: MDA-MB-231 breast
K-562 leukemia = test system: K-562 leukemia
HL-60(TB) leukemia = test system: HL-60(TB) leukemia
A549 NSCLC = test system: A549 NSCLC
U251 CNS = test system: U251 CNS
M14 melanoma = test system: M14 melanoma
RXF 393 renal = test system: RXF 393 renal
HS 578T breast = test system: HS 578T breast

Work on `COc1ccc2c(c1)C(=O)c1c-2c(=O)n(CCCCCCC(=O)NO)c2ccccc12` yielded a GI50 (SF-539 CNS) of 480 nM, a TGI (SF-539 CNS) of 28700 nM and a GI50 (SN12C renal) of 1360 nM. For the same compound, the TGI (SN12C renal) was 88200 nM, the GI50 (MOLT-4 leukemia) was 139 nM and the TGI (MOLT-4 leukemia) was > 100000 nM. It also gave a GI50 (IGROV1 ovarian) of 732 nM, a TGI (IGROV1 ovarian) of 12200 nM and a GI50 (HT29 colon) of 282 nM. The TGI (HT29 colon) was 2750 nM, the GI50 (SF-295 CNS) was 733 nM and the TGI (SF-295 CNS) was 4850 nM. For the same compound, the GI50 (OVCAR-5 ovarian) was 527 nM, the TGI (OVCAR-5 ovarian) was 12300 nM and the GI50 (NCI-H522 lung) was 82.2 nM. The TGI (NCI-H522 lung) was 1170 nM, the GI50 (HOP-62 NSCLC) was 98.7 nM and the TGI (HOP-62 NSCLC) was 2710 nM. For the same compound, the GI50 (UACC-62 melanoma) was 145 nM, the TGI (UACC-62 melanoma) was 1380 nM and the GI50 (DU-145 prostate) was 428 nM. It also gave a TGI (DU-145 prostate) of 10800 nM, a GI50 (SK-OV-3 ovarian) of 300 nM and a TGI (SK-OV-3 ovarian) of 2970 nM. The GI50 (PC-3 prostate) was 491 nM, the TGI (PC-3 prostate) was > 100000 nM and the GI50 (SF-268 CNS) was 1060 nM. It also gave a TGI (SF-268 CNS) of 9800 nM, a GI50 (MDA-MB-435) of 197 nM and a TGI (MDA-MB-435) of 2290 nM. The GI50 (RPMI-8226 leukemia) was 259 nM, the TGI (RPMI-8226 leukemia) was > 100000 nM and the GI50 (786-0 renal) was 1320 nM. It also gave a TGI (786-0 renal) of 11500 nM, a GI50 (SK-MEL-5 melanoma) of 184 nM and a TGI (SK-MEL-5 melanoma) of 1080 nM. For the same compound, the GI50 (MCF7 breast) was 226 nM, the TGI (MCF7 breast) was 10200 nM and the GI50 (BT-549 breast) was 2710 nM. For the same compound, the TGI (BT-549 breast) was 42600 nM, the GI50 (HCT-15 colon) was 602 nM and the TGI (HCT-15 colon) was > 100000 nM. It also gave a GI50 (SW-620 colon) of 130 nM, a TGI (SW-620 colon) of 695 nM and a GI50 (NCI-H460 lung) of 269 nM. For the same compound, the TGI (NCI-H460 lung) was > 100000 nM, the GI50 (OVCAR-8 ovarian) was 329 nM and the TGI (OVCAR-8 ovarian) was 25200 nM. For the same compound, the GI50 (UACC-257 melanoma) was 223 nM, the TGI (UACC-257 melanoma) was 2310 nM and the GI50 (SNB-75 CNS) was 93 nM. The TGI (SNB-75 CNS) was 13800 nM, the GI50 (EKVX NSCLC) was 700 nM and the TGI (EKVX NSCLC) was > 100000 nM. It also gave a GI50 (A498 renal) of 245 nM, a TGI (A498 renal) of 985 nM and a GI50 (SNB-19 CNS) of 616 nM. For the same compound, the TGI (SNB-19 CNS) was 13400 nM, the GI50 (OVCAR-4 ovarian) was 1110 nM and the TGI (OVCAR-4 ovarian) was 17500 nM. The GI50 (NCI-H23 lung) was 296 nM, the TGI (NCI-H23 lung) was 1810 nM and the GI50 (OVCAR-3 ovarian) was 292 nM. It also gave a TGI (OVCAR-3 ovarian) of 2110 nM, a GI50 (SK-MEL-28 melanoma) of 478 nM and a TGI (SK-MEL-28 melanoma) of 3120 nM. It also gave a GI50 (HOP-92 NSCLC) of 197 nM, a TGI (HOP-92 NSCLC) of 1240 nM and a GI50 (HCT-116 colon) of 66.4 nM. The TGI (HCT-116 colon) was 1150 nM, the GI50 (CCRF-CEM leukemia) was 138 nM and the TGI (CCRF-CEM leukemia) was > 100000 nM. It also gave a GI50 (SK-MEL-2 melanoma) of 1230 nM, a TGI (SK-MEL-2 melanoma) of 5900 nM and a GI50 (MALME-3M melanoma) of 202 nM. It also gave a TGI (MALME-3M melanoma) of 60900 nM, a GI50 (CAKI-1 renal) of 720 nM and a TGI (CAKI-1 renal) of 3720 nM. The GI50 (SR leukemia) was 99.9 nM, the TGI (SR leukemia) was > 100000 nM and the GI50 (HCC-2998 colon) was 398 nM. For the same compound, the TGI (HCC-2998 colon) was 1840 nM, the GI50 (TK-10 renal) was 74.3 nM and the TGI (TK-10 renal) was 1680 nM. The GI50 (KM12 colon) was 358 nM, the GI50 (LOX IMVI melanoma) was 236 nM and the TGI (LOX IMVI melanoma) was 1130 nM. It also gave a GI50 (T-47D breast) of 94.8 nM, a TGI (T-47D breast) of 526 nM and a GI50 (ACHN renal) of 226 nM. The TGI (ACHN renal) was 1700 nM, the GI50 (NCI-H226 lung) was 1180 nM and the TGI (NCI-H226 lung) was > 100000 nM. It also gave a GI50 (NCI/ADR-RES ovarian) of 94.1 nM, a TGI (NCI/ADR-RES ovarian) of 2290 nM and a GI50 (COLO 205 colon) of 304 nM. The TGI (COLO 205 colon) was 1710 nM, the GI50 (MDA-MB-231 breast) was 715 nM and the TGI (MDA-MB-231 breast) was 26000 nM. The GI50 (K-562 leukemia) was 260 nM, the TGI (K-562 leukemia) was > 100000 nM and the GI50 (HL-60(TB) leukemia) was 325 nM. The TGI (HL-60(TB) leukemia) was > 100000 nM, the GI50 (A549 NSCLC) was 416 nM and the TGI (A549 NSCLC) was 3190 nM. It also gave a GI50 (U251 CNS) of 352 nM, a TGI (U251 CNS) of 2010 nM and a GI50 (M14 melanoma) of 407 nM. It also gave a TGI (M14 melanoma) of 13900 nM, a GI50 (RXF 393 renal) of 224 nM and a TGI (RXF 393 renal) of 1770 nM. For the same compound, the GI50 (HS 578T breast) was 160 nM and the TGI (HS 578T breast) was 4470 nM.
